# Reference: article PMC7371863, “Intracellular interplay between cholecystokinin and leptin signalling for satiety control in rats” (Scientific Reports, 2020)
# Where two headings read alike, the source gives them in different places.
# Legend:
# pSTAT3 in C6-ObRb cells = assay: Immunofluorescent staining of pSTAT3 in C6-ObRb cells; type: cell-based, rat C6 cells, mouse ObRb
# Description: Rat C6 glioma cells were cultured in Dulbecco’s Modified Eagle Medium/F12 (DMEM/F12) supplemented with 10% FBS, sodium bicarbonate (1.2 g/L), and 1% penicillin/streptomycin antibiotics at 37 °C in 5% CO2. The full-length mouse leptin receptor (ObRb) in pcDNA3.1 vector was kindly provided by Dr. Christian Bjørbaek (BIDMC, Harvard Medical School, Boston, MA, USA) and transfected using Lipofectamine 2000. Subsequently, the cells were cultured in medium containing 500 μg/mL G418 for cell selection.
# […] Cells were treatment with AG490 (1 μM) or LY294002 (50 μM) 15 min prior to the leptin stimulation until the time of fixation. These cells were fixed in 4% phosphate-buffered paraformaldehyde for 15 min and washed three times with PBS(−). The fixed samples were then incubated for 2 h at room temperature in 10% donkey serum dissolved in 0.1% Triton-X PBS(−). Next, samples were incubated with 1:100 affinity-purified rabbit phospho-STAT3 (pTyr^705) dissolved in 5% donkey serum PBS(−) for 24 h at 4 °C. After three 20-min PBS(−) rinses, samples were incubated in 1:400 Cy3-conjugated donkey anti-rabbit IgG for 2 h at room temperature. Finally, samples were rinsed with PBS(−) (four 15-min rinses on an orbital shaker) and mounted using Vectashield containing 4′,6-diamidino-2-phenylindole (DAPI).
# (§1) Images were acquired using a confocal laser-scanning microscope (Olympus FV1000 or Nikon A1R MP plus) with a laser diode (405 nm), argon laser (488 nm), and helium neon laser ([…]). The nuclear immunofluorescent intensity (8-bit depth) was analyzed using Photoshop CS 6 software.
# [1] = system: nuclear pSTAT3 in the rat VMN; assay: Nuclear pSTAT3-ir in VMN after i.c.v. injection; type: in vivo
# Description: A guide cannula (cut length 5 mm, no. C315G; Plastics One Inc.) was stereotaxically implanted to the right lateral ventricle of each rat, with the coordinates of 0.8 mm posterior to the bregma, 1.4 mm lateral to the midline, and 3.3 mm ventral from the skull surface. The canula was secured on the skull surface with two stainless steel screws and dental acrylic resin. The rats were then allowed to recover in their home cage for at least 1 week. Leptin (4 µg) and CCK (2 µg) were dissolved in 4 µl ACSF and administered through an internal cannula (cut length 5.5 mm, no. C315I; Plastics One Inc. C315I). To minimize the effect of endogenous signals, the rats were deprived of food for 10 h (08:00–18:00) before i.c.v. administration. Drugs were infused at a flow rate of 1 µl/min over 4 min using a motorized syringe pump (Carnegie Medicine model CMA/102), followed by another 4 min of rest for diffusion. One hour after i.c.v. administration, the rat brain was removed for immunohistochemical analysis.
# For immunohistochemical analysis of rat hypothalamic slices, animals were deeply anesthetized with an i.p. injection of sodium pentobarbital (50 mg/kg) and transcardially perfused with PBS(−) for 5 min followed by ice-cold 4% (w/v) paraformaldehyde in PBS(−) for 15 min. The brain was removed and further fixed in the same fixative (4 °C, overnight). Then, the olfactory bulbs and/or cerebellum were removed from the brain in ice-cold PBS(−). Pre-trimmed brain tissues were immersed in 30% (w/v) sucrose and stored overnight at 4 °C. The fixed and cryoprotected brain tissues were embedded with OCT compound. Frozen sections of 30 µm thickness were cut using a cryostat microtome and washed three times with PBS(−) in 24-well plates, after which they were mounted on glass slides. […]
# as §1
# VMN cells = assay: Ca2+ imaging in rat VMN slices; type: cell-based; details: for cells responding exclusively to leptin or CCK-8s, VMN (discussion): approximately, population analysis; for Rmax, Ca2+ concentration response / EC50: four-parameter Hill function; for EC50: read-out: EC50, Ca2+ concentration response
# VMN neurons = assay: Whole cell patch clamp, action potential firing in VMN neurons; type: cell-based, rat; details: for action potential firing frequency: n.s.
# Description: The VMH slices (300-μm thickness) were prepared following deep pentobarbital anaesthesia administration to postnatal day (PD) 12–16 rats using a vibrating blade microtome in ice-cold high-Mg^2+ artificial cerebrospinal fluid (ACSF) containing 138.6 mM NaCl, 3.35 mM KCl, 21 mM NaHCO3, 0.6 mM NaH2PO4, 9.9 mM D-glucose, 0.5 mM CaCl2, and 4 mM MgCl2 bubbled with 95% O2/5% CO2. The slices were incubated at room temperature for 1 h in regular ACSF containing 2.5 mM CaCl2, and 1.0 mM MgCl2 bubbled with 95% O2/5% CO2. Subsequently, the slices were transferred to an upright microscope stage (Olympus BX50WI). The recording chamber was perfused with oxygenated normal ACSF at 3 ml/min at 34 °C. VMN neurons were visualized through an infrared CCD camera (Hamamatsu Photonics C2741-79). Neurons were recorded in the whole-cell current-clamp mode using a patch-clamp amplifier (Axon Instruments Axopatch 200B). The recordings were performed using patch pipettes with an access resistance of 4–6 MΩ and internal solution containing 135 mM potassium gluconate, 5 mM KCl, 10 mM HEPES, 0.1 mM CaCl2, 1.0 mM EGTA, 10 mM phosphocreatine, 2 mM Mg-ATP, and 0.2 mM Na-GTP (pH adjusted to 7.3 with KOH). The output of the amplifier was digitised using an A/D converter board (Axon Instruments Digidata 1200) with a sampling rate of 10 kHz and recorded on a hard disk by data acquisition software (Axon Instruments pCLAMP 8). Membrane potentials were low-pass-filtered at 2 kHz. Resting membrane potentials less than − 60 mV were set to approximately − 60 mV by current injections. Stimulants were applied by the gravity drop perfusion system. Further details of electrophysiological recordings were described previously.
# [2] = leptin with co-stimulation of 1 nM CCK-8s
substance,measurement,setting,value
"leptin: peptide hormone secreted from white adipocyte tissue, product of the obese gene; PeproTech Cat#450-31",nuclear pSTAT3-ir,"pSTAT3 in C6-ObRb cells; leptin 100 nM, 30 images/three dishes, p < 0.01 one-way ANOVA",significantly increased pSTAT3-ir in the nuclei
same,number of nuclear pSTAT3-ir in VMN relative to vehicle-injected control,"[1]; leptin 4 µg i.c.v., 1 h, 10 h food-deprived, p < 0.01",three times
same,"number of nuclear pSTAT3-ir in VMN, co-administration, versus vehicle","[1]; leptin 4 µg with CCK-8s 2 µg i.c.v., 1 h, n.s.",failed to increase the number of nuclear pSTAT3-ir
same,"cells responding exclusively to leptin or CCK-8s, VMN (discussion)",VMN cells; leptin 500 nM and CCK-8s 10 nM,5–12%
same,"cells that exclusively responded to leptin, VMN","VMN cells; leptin 500 nM versus CCK-8s 10 nM, 11 slices, mean with standard error",12.2 ± 1.5%
same,"cells with monophasic Ca2+ increase, VMN","VMN cells; leptin 500 nM, 11 slices, 0.5 µM tetrodotoxin, 34 °C, mean with standard error",65.4 ± 7.5%
same,"Rmax, Ca2+ concentration response",VMN cells; leptin alone,0.2
same,EC50,VMN cells; leptin alone,0.153 µM
same,"Rmax, Ca2+ concentration response",VMN cells; leptin with 1 µM LGM,0.14
same,EC50,VMN cells; leptin with 1 µM LGM,0.163 µM
same,"Rmax, Ca2+ concentration response",VMN cells; [2],0.26
same,EC50,VMN cells; [2],0.0428 µM
same,"neurons with apparent (> twofold) increase in firing frequency, co-stimulation",VMN neurons; leptin 30 nM with CCK-8s 1 nM,Five neurons in nine recordings
same,"action potential firing frequency, co-stimulation","VMN neurons; leptin 30 nM with CCK-8s 1 nM, n = 9, p < 0.01, spontaneous 1.45 ± 0.07 Hz, − 60 mV, 34 °C",3.49 ± 0.68 Hz
same,"highest action potential firing frequency, co-stimulation","VMN neurons; leptin 30 nM with CCK-8s 1 nM, single neuron maximum",5.5 Hz
same,action potential firing frequency,"VMN neurons; leptin 30 nM, n = 9, spontaneous 1.45 ± 0.07 Hz, − 60 mV, 34 °C",1.55 ± 0.13 Hz
CCK-8s [reference compound],cytosolic pSTAT3-ir,pSTAT3 in C6-ObRb cells; CCK-8s 50 nM,induced cytosolic pSTAT3-ir
same,nuclear pSTAT3-ir on co-stimulation versus leptin alone,"pSTAT3 in C6-ObRb cells; CCK-8s 50 nM with leptin 100 nM, 30 images/three dishes, p < 0.01",significantly smaller than that by leptin stimulation alone
same,nuclear intensity of pSTAT3-ir versus unstimulated controls,"pSTAT3 in C6-ObRb cells; CCK-8s 50 nM, 30 images/three dishes, p < 0.01",significantly smaller in the CCK-8s-treated group than in unstimulated controls
same,nuclear pSTAT3 levels in VMN versus single leptin injection,[1]; CCK-8s 2 µg co-injected with leptin 4 µg i.c.v.,reduced nuclear pSTAT3 levels in the rat VMN compared with single leptin injections
same,Ca2+ transients in slice preparation,"VMN cells; CCK-8s 1 nM alone, n = 216 in 18 slices",failed to evoke Ca^2+ transients
same,effect of co-stimulation on leptin-induced Ca2+ responses,"VMN cells; CCK-8s 1 nM with leptin 1–1,000 nM, p < 0.01 two-way ANOVA",amplified leptin-induced Ca^2+ responses
same,"cells that exclusively responded to CCK-8s, VMN","VMN cells; CCK-8s 10 nM versus leptin 500 nM, 11 slices, mean with standard error",5.2 ± 1.1%
same,"leptin responders also responding to CCK-8s, VMN","VMN cells; CCK-8s 10 nM, leptin 500 nM, 11 slices, mean with standard error",81.3 ± 9.1%
same,"cells responding exclusively to leptin or CCK-8s, VMN (discussion)",VMN cells; leptin 500 nM and CCK-8s 10 nM,5–12%
same,cells showing leptin-induced Ca2+ increase that also responded to CCK-8s (discussion),VMN cells; leptin 500 nM and CCK-8s 10 nM,more than 80%
same,action potential firing frequency,"VMN neurons; CCK-8s 1 nM, n = 9, spontaneous 1.45 ± 0.07 Hz, − 60 mV, 34 °C",1.28 ± 0.15 Hz
